Data taken from patent US20200023001A1, “GlycoFix (Structurally And Functionally Repaired Endothelial Glycocalyx)” (Northeastern University, priority 2018, published 2020).
Where “and” joins values, the source holds several entries; their conditions need not be identical. Equal values may be shown once.

Tested on: Cx43 at RFPEC borders
Assay: Cx43 expression at EC borders, immunostaining and confocal microscopy
Type: cell-based, rat
Method: Cell Culture. Rat fat pad ECs (RFPEC) at passages 20 to 39 were offspring of cells isolated from rat epididymal fat pad and provided by Dr. Mia Thi of Albert Einstein College of Medicine (Bronx, N.Y.). […] The RFPECs are immortalized, making it possible to use late passages. RFPEC were seeded on 12-14-mm diameter and 0.13-0.17-mm thick glass coverslips at a seeding density of 15,000-20,000 cells/cm^2. Cells were cultured in Dulbecco's Modified Eagle Medium (DMEM, Invitrogen, USA) with 1% penicillin-streptomycin (PS) and 10% fetal bovine serum (FBS, Gibco Life Technologies). Cells were maintained in humidity at 37° C. and 5% CO2. RFPECs reached full confluence in 3 days.
Cultured RFPECs produce thick and robust GCX in this time period. At 3 days post-seeding the RFPECs' culture medium was supplemented with 1% BSA in place of FBS to stabilize the GCX during preservation and immunolabeling (described below). For enzyme treatment experiments, 25 micro-international units per milliliter (μIU/ml) of heparinase III (Hep III; IBEX, Canada) were added to BSA-containing culture media for 2 hours to degrade HS from the GCX [46]. HepIII was washed out, and the wash-out was followed by a 16-hour incubation of RFPECs in regular BSA-containing media. In self-recovery experiments, RFPEC GCX was left to recover for 24 hours after enzyme degradation. The time frame was chosen in accordance with the 20-hour time period that is required for HS restoration to occur on the surface of ECs. For HS recovery experiments, exogenous HS and/or S1P were applied for 16 hours to accommodate the communication test as an assessment of functional glycocalyx recovery. […] After HS was degraded with HepIII, it was replaced by a 16-hour feeding of RFPECs with 59 μg/ml exogenous porcine mucosal HS (Celsus, Cincinnati, Ohio), based on published serum concentration of HS [43]. In sphingosine-1-phosphate experiments, culture media containing enzyme was substituted for media containing either 10 μM of S1P (Sigma-Aldrich) or a combination of 59 μg/ml of HS and 10 μM of S1P for 16 hours after enzyme degradation.
As specified by the manufacturer, the HS antibody reacts with many types of heparan sulfate. The reactivity of the HS antibody is abolished after treatment with Hep III, indicating antibody specificity. For secondary detection of HS, Alexa Flour 488 conjugated goat anti-mouse IgG/IgM (H+L; Life Technologies) secondary antibody was used. RFPECs to be processed for connexin 43 (Cx43) were fixed in 4% paraformaldehyde, permeabilized in 0.2% Triton X-100 (Fisher), and blocked in 5% goat serum combined with 0.2% Triton X-100. Connexin 43 staining was performed overnight at 4° C. with 1:100 mouse monoclonal Cx43 antibody (Millipore). […] Secondary Cx43 detection was done with Alexa Flour 488 conjugated goat anti-mouse IgG. […] These controls confirmed that the staining observed in the RFPECs is not an artefact.
Confocal immunofluorescence microscopy imaging and analysis. Alexa Fluor 488 fluorescent RFPECs were mounted with Vectashield containing DAPI (Vector Labs) and imaged with a Zeiss LSM 700 laser scanning confocal microscope. HS and Cx43 were imaged at 63× magnification (oil objective) and 40× magnification (oil objective), respectively. Lasers with excitation wavelengths of 490 nm (for HS or Cx43) and 350 nm (for DAPI) were used to obtain XY-plane slices. Laser gain and transmission were kept below fluorophore saturation levels. Confocal slice intervals were 0.2 μm for HS and 0.7 μm for Cx43. […]

heparan sulfate [HS]
Cx43 distribution along the perimeter of the cells (RFPEC, Hep III, then 16 h with or without 59 μg/ml HS and/or 10 μM S1P, mean±SEM): 46% and 46.45±4.21% | Cx43 distribution/expression, result in words (FIG. 3 legend) (after Hep III, HS 59 μg/ml, S1P 10 μM): partially restored | Cx43 recovery at cell borders, % of baseline conditions (treatment after enzymatic HS degradation): approximately 80%
